Assay results as given in patent US20170190705A1, “Compositions and Methods for Inhibiting BMP” (THE BRIGHAM AND WOMAN'S HOSPITAL, INC., priority 2014, published 2017).

Legend:
[1] = target: T1, caALK4 (Homo sapiens, UniProt P36896); assay: Luciferase reporter assay constitutively active ALK4; conditions: read-out: Cell Based Assay caALK4 IC50
T1 sequence (P36896 1-505 T206D): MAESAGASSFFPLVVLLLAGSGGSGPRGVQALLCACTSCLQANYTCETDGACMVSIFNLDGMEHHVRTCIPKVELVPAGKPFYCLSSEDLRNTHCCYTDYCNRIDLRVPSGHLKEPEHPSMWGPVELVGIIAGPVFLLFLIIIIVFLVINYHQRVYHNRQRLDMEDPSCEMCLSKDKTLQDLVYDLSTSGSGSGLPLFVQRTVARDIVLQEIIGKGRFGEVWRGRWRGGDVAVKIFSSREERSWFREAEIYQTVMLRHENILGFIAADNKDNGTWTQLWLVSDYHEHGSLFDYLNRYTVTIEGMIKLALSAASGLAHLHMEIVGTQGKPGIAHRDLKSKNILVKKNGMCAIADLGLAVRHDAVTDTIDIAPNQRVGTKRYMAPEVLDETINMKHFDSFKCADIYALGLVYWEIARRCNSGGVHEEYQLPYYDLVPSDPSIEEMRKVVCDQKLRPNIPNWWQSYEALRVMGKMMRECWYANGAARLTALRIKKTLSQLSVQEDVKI
From the text: C2Cl2 […] cells stably transfected with BMP responsive element from the Id promoter fused to luciferase reporter gene (BRE-Luc) were generously provided by Dr. Peter ten Dijke (Leiden University Medical Center, NL) following the methods described by Zilberberg et al., BMC cell biology 2007, 8, 41-50. Human embryonic kidney 293T cells stably transfected with the TGF-β responsive element from the PAI-1 promoter fused to luciferase reporter gene (CAGA-Luc) were generously provided by Dr. Howard Weiner (Brigham and Women's Hospital, Boston, Mass.) following the methods described by Oida et al., PloS one 2011, 6, e18365. C2Cl2 Bre-Luc and 293T CAGA-Luc cells were seeded in DMEM supplemented with 2% FBS at 20,000 cells per well in tissue culture treated 96-well plates (Costar® 3610; Corning). The cells were incubated for 1 h (37° C. and 10% CO2) and allowed to settle and attach. Compounds of interest or DMSO were diluted in DMEM and added at final compound concentrations of 1 nM to 10 μM. Cells were then incubated for 30 min. Adenovirus expressing constitutively active BMP and TGF-β type I receptors (Ad.caALK1-5), generously provided by Dr. Akiko Hata (University of to California at San Francisco), were added to achieve a multiplicity of infection (MOI) of 100. Plates were incubated overnight at 37° C. Cell viability was assayed with an MIT (3-(4,5-dimethylthiazol-2-yl)-2,5-diphenyl tetrazolium bromide) colorimetric assay (Promega) per the manufacturer's instructions. Media was discarded, and firefly luciferase activity was measured (Promega) according to manufacturer's protocol. Light output was measured using a Spectramax L luminometer (Molecular Devices) with an integration time of one second per well. Data was normalized to 100% of incremental BRE-Luc activity due to adenoviruses specifying caALK1, 2, or 3, or the incremental CAGA-Luc activity due to adenoviruses specifying caALK4 or 5.

[2] = target: T2, TTK (Homo sapiens, UniProt P33981); assay: Kinome profiling TTK; assay type: biochemical; conditions: read-out: Inhibitory activity TTK; for inhibition at 0.1 µM: 100 nM
T2 sequence (P33981 1-857): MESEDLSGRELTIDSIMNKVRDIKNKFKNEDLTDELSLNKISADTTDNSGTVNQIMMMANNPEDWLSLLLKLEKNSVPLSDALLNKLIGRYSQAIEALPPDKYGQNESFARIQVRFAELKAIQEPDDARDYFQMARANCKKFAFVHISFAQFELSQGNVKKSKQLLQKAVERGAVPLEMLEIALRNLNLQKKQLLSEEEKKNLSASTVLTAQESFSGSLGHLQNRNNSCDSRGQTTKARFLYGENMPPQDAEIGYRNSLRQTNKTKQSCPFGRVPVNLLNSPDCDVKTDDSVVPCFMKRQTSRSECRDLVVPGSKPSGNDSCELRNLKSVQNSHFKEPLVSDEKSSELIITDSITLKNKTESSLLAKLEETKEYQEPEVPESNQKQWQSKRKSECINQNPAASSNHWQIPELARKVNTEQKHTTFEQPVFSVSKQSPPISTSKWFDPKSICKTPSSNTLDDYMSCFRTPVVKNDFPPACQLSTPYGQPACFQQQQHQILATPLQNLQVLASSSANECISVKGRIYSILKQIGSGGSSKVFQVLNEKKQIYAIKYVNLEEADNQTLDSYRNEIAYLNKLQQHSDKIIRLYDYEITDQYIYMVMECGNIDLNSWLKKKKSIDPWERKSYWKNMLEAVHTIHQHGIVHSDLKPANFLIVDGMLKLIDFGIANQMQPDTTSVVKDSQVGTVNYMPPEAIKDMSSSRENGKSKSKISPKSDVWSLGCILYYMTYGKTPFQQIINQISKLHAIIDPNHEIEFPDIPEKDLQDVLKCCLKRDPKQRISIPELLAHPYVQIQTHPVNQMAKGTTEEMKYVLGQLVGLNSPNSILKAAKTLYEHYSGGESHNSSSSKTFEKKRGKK
Method: (§1) . The kinome-wide selectivity was determined following the methods previously reported by Mohedas et al., ACS Chem Biol 2013, 8, 1291-1302 and Sanvitale et al., PLoS One 2013, 8, e62721.

[3] = target: MNK2 (Homo sapiens, UniProt Q9HBH9); assay: Kinome profiling MNK2; assay type: biochemical; conditions: read-out: Inhibitory activity MNK2; for inhibition at 0.1 µM: 100 nM
MNK2, sequence (Q9HBH9 whole entry): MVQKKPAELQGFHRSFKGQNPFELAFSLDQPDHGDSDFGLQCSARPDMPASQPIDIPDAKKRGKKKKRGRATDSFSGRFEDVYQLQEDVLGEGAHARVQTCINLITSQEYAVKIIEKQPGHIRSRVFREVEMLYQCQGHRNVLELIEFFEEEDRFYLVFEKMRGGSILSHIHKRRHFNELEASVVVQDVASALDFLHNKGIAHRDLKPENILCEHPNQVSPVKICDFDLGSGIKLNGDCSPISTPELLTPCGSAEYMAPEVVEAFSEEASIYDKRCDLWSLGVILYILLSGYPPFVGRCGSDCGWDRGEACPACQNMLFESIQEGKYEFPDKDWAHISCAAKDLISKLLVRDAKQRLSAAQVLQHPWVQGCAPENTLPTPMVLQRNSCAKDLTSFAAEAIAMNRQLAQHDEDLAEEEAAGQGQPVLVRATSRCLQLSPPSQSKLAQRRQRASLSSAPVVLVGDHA
Method: as §1

SMILES | IC50 [1] | inhibition at 0.1 µM [2] | inhibition at 1 µM [2] | inhibition at 0.1 µM [3] | inhibition at 1 µM [3]
COc1cc(-c2cc(-c3ccc(N4CCNCC4)cc3)cnc2C)cc(OC)c1OC [Compound 10, 1-(4-(6-methyl-5-(3,4,5-trimethoxyphenyl)pyridin-3-yl)phenyl)piperazine] | 5530 nM | 3% | 4% | 6% | 6%
COc1cc(-c2cc(-c3ccc(N4CCNCC4)cc3)cnc2N)cc(OC)c1OC [Compound 15, 5-(4-(piperazin-1-yl)phenyl)-3-(3,4,5-trimethoxyphenyl)pyridin-2-amine] | 25 nM | 13% | 18% | 1% | 7%
